From patent US10017481B2, “Conformationally constrained, fully synthetic macrocyclic compounds” (POLYPHOR AG, priority 2012, dated 2018)

Molecular target: T1, Human recombinant cathepsin S (Homo sapiens, UniProt P25774)
T1 construct: host or cells: murine myeloma NS0 cells
Experiment: Cathepsin S (CatS) enzyme assay
Format: biochemical
Experimental: 2. Enzyme Assays for the Peptidase Endothelin Converting Enzyme-1 (ECE-1) and for the Cysteine Protease Cathepsin S (CatS)
The assays were performed according to provider's (Ricerca Biosciences, LLC) protocols which in turn are based on literature procedures (for ECE-1 cf.: O. Valdenaire et al., Eur. J. Biochem. 1999, 264, 341-349; F. D. Russell, A. P. Davenport, Circ. Res. 1999, 84, 891-896; and for CatS: G P Shi et al., J. Biol. Chem. 1992, 267, 7258-62; D Brömme et al., J. Biol. Chem. 1993 268, 4832-4838.).
Human recombinant cathepsin S expressed in a murine myeloma NS0 cells is used. Test compound and/or vehicle is preincubated with 0.1 μg/ml enzyme in modified acetate buffer pH 4.5 for 15 minutes at 25° C. The reaction is initiated by addition of […] Z-Leu-Arg-AMC for another 30 minutes' incubation period. Determination of the amount of AMC formed is read spectrofluorimetrically at 360 nm/465 nm. […]
IC50 values were determined by a non-linear, least squares regression analysis using MathIQ™ (ID Business Solutions Ltd., UK). Inhibition constants K were calculated according to the equation of Cheng and Prusoff (Y. Cheng, W. H. Prusoff, Biochem. Pharmacol. 1973, 22, 3099-3108) using the observed IC50 of the tested compound, the concentration of radioligand employed in the assay, and the historical values for the KD of the ligand. The Hill coefficient (nH), defining the slope of the competitive binding curve, was calculated using MathIQ™.

T1 sequence (P25774 115-331): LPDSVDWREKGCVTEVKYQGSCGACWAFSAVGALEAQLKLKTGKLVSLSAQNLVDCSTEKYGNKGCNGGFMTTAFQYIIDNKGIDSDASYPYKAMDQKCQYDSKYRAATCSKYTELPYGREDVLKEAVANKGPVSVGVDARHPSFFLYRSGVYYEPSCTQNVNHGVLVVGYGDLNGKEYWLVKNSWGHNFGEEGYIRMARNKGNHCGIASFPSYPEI

| IC50 [µM] | inhibition at 10 µM (10 μM compound) [%] | % Inhibition at 10 μM (10 μM compound) [%] | SMILES |
| --- | --- | --- | --- |
| 14.7 | 45 | – | CN(C)CC(=O)N[C@H]1CCCN(C)C(=O)c2cccc(c2)-c2ccccc2OC[C@@H]2C[C@H](NC(=O)Cc3ccc4ccccc4c3)CN2C1=O [Ex. 20, 2-(dimethylamino)-N-[(10S,12S,16S)-20-methyl-12-{[2-(2-naphthyl)acetyl]amino}-15,21-dioxo-8-oxa-14,20-diazatetracyclo[20.3.1.0^2,7.0^10,14]hexacosa-1(26),2,4,6,22,24-hexaen-16-yl]acetamide] |
| – | 75 | – | CN1CCC[C@H](NS(=O)(=O)C2CC2)C(=O)N2C[C@@H](NC(=O)Cc3ccc4ccccc4c3)C[C@H]2COc2ccccc2-c2cccc(c2)C1=O [Ex. 21, N-[(10S,12S,16S)-16-[(cyclopropylsulfonyl)amino]-20-methyl-15,21-dioxo-8-oxa-14,20-diazatetracyclo[20.3.1.0^2,7.0^10,14]hexacosa-1(26),2,4,6,22,24-hexaen-12-yl]-2-(2-naphthyl)acetamide] |
| – | – | 55 | CC(C)CC(=O)N[C@H]1CCCN(C)C(=O)c2cccc(c2)-c2ccccc2OC[C@@H]2C[C@H](NC(=O)Cc3ccc4ccccc4c3)CN2C1=O [Ex. 24, 3-methyl-N-[(10S,12S,16S)-20-methyl-12-{[2-(2-naphthyl)acetyl]amino}-15,21-dioxo-8-14,20-diazatetracyclo[20.3.1.0^2,7.0^10,14]hexacosa-1(26),2,4,6,22,24-hexaen-16-yl]butanamide] |
| – | 50 | – | CCCC(=O)N[C@H]1CCCN(C)C(=O)c2cccc(c2)-c2ccccc2OC[C@@H]2C[C@H](NC(=O)Cc3ccc4ccccc4c3)CN2C1=O [Ex. 27, N-[(10S,12S,16S)-20-methyl-12-{[2-(2-naphthyl)acetyl]amino)-15,21-dioxo-8-oxa-14,20-diazatetracyclo[20.3.1.0^2,7.0^10,14]hexacosa-1(26),2,4,6,22,24-hexaen-16-yl]butanamide] |
| – | 57 | – | CCCCC(=O)N[C@H]1CCCN(C)C(=O)c2cccc(c2)-c2ccccc2OC[C@@H]2C[C@H](NC(=O)Cc3ccc4ccccc4c3)CN2C1=O [Ex. 28, N-[(10S,12S,16S)-20-methyl-12-{[2-(2-naphthyl)acetyl]amino}-15,21-dioxo-8-oxa-14,20-diazatetracyclo[20.3.1.0^2,7.0^10,14]hexacosa-1(26),2,4,6,22,24-hexaen-16-yl]pentanamide] |
